Experimental data: patent US9701689B2, “Substituted pyridines and pyridazines as CCR10 receptor inhibitors” (KYOWA HAKKO KIRIN CO., LTD., priority 2012, dated 2017)

Target: T1, human CCR10 (Homo sapiens, UniProt P46092)
T1 construct: expressed in transfected cells; host or cells: KJMGER8 cells (Namalwa cell-derived line), beta-estradiol-induced; hCCR10G16 cells
T1 sequence (P46092 1-362): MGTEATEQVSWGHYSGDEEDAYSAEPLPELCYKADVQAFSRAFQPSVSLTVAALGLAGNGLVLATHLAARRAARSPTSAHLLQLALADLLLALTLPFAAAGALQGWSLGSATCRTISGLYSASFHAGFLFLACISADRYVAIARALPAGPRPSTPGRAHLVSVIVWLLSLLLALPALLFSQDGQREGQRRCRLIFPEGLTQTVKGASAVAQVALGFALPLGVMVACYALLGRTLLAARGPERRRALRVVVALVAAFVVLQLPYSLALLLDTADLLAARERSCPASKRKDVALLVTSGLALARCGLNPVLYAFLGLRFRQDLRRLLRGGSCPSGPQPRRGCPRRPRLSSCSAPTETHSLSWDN
Assay: CCR10 antagonistic effect: calcium assay of human CCR10 (CTACK-induced increase of intracellular calcium in hCCR10G16 cells)
Format: cell-based
Conditions: at a concentration of not more than 1000 nmol/L; human CCR10-expressing hCCR10G16 cells, 300 nmol/L CTACK added; read-out: inhibition of increase in the calcium ion concentration
Outline: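 KJMGER8-derived hCCR10G16 cells (CCR10 plus Gα16, induced 24 h with 10 nmol/L β-estradiol), Fluo-3 loaded, preincubated with compound 30 min at 37 °C. Stimulated with CTACK (300 nmol/L solution before addition); calcium read ~5 min by FDSS, max−min fluorescence; % inhibition vs control.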

Q: Cc1cc(Cl)ccc1Nc1cc(S(N)(=O)=O)ncc1C(=O)N1CCC2(CC1)OCc1ccccc12 [Compound 46, 4-(4-chloro-2-methylphenylamino)-5-(3H-spiro[isobenzofuran-1,4′-piperidine]-1′-ylcarbonyl]pyridine-2-sulfonamide] was tested. Which inhibition at up to 1 µM did it give?
A: ≥ 50%

Q: For Cc1c(S(N)(=O)=O)ncc(C(=O)N2CCC(c3ccc(F)cc3)CC2)c1NC(C)c1ccccc1 (stereo not shown) [Compound 220, 5-[4-(4-fluorophenyl)piperidine-1-carbonyl]-3-methyl-4-(1-phenylethylamino)pyridine-2-sulfonamide], which inhibition at up to 1 µM is on record?
A: ≥ 50%

Q: With Cc1c(Cl)cccc1Nc1c(C(=O)N2CCC(c3ccc(F)cc3)CC2)cnc(S(N)(=O)=O)c1Cl [Compound 180, 3-chloro-4-(3-chloro-2-methylphenylamino)-5-[4-(4-fluorophenyl)piperidine-1-carbonyl]pyridine-2-sulfonamide] as the compound, how does the inhibition at up to 1 µM read?
A: ≥ 50%

Q: Which inhibition at up to 1 µM does the source give for COc1ccc(Cl)cc1Nc1cc(S(N)(=O)=O)ncc1C(=O)N1CCC(c2ccc(F)cc2)CC1 [Compound 69, 4-(5-chloro-2-methoxyphenylamino)-5-[4-(4-fluorophenyl)piperidine-1-carbonyl]pyridine-2-sulfonamide] here?
A: ≥ 50%

Q: Cc1c(S(=O)(=O)Nc2ccon2)ncc(C(=O)N2CCC(c3ccc(F)cc3)CC2)c1Nc1ccc(Cl)cc1Cl [Compound 280, 4-(2,4-dichlorophenylamino)-5-[4-(4-fluorophenyl)piperidine-1-carbonyl]-N-(isoxazol-3-yl)-3-methylpyridine-2-sulfonamide] was tested. Which inhibition at up to 1 µM did it give?
A: ≥ 50%

Q: For CC(=O)NC1CCN(S(=O)(=O)c2cc(Nc3ccc(F)cc3C)c(C(=O)N3CCC(c4ccc(F)cc4)CC3)cn2)CC1 [Compound 136, N-{1-{4-(4-fluoro-2-methylphenylamino)-5-[4-(4-fluorophenyl)piperidine-1-carbonyl]pyridin-2-ylsulfonyl}piperidin-4-yl}acetamide], which inhibition at up to 1 µM is on record?
A: ≥ 50%

Q: With Cc1cc(Nc2cc(S(N)(=O)=O)ncc2C(=O)N2CCC(c3ccc(F)cc3)CC2)c(C)cc1Cl [Compound 17, 4-(4-chloro-2,5-dimethylphenylamino)-5-[4-(4-fluorophenyl)piperidine-1-carbonyl]pyridine-2-sulfonamide] as the compound, how does the inhibition at up to 1 µM read?
A: ≥ 50%

Q: Which inhibition at up to 1 µM does the source give for NS(=O)(=O)c1ncc(C(=O)N2CCC(c3ccc(F)cc3)CC2)c(Nc2ccc(Cl)cc2)c1Cl [Compound 302, 3-chloro-4-(4-chlorophenylamino)-5-[4-(4-fluorophenyl)piperidine-1-carbonyl]pyridine-2-sulfonamide] here?
A: ≥ 50%

Q: How did the inhibition at up to 1 µM turn out when Cc1c(S(=O)(=O)Nc2ccon2)ncc(C(=O)N2CCC(c3ccc(F)cc3)CC2)c1Nc1cccc(Cl)c1 [Compound 244, 4-(3-chlorophenylamino)-5-[4-(4-fluorophenyl)piperidine-1-carbonyl]-N-(isoxazol-3-yl)-3-methylpyridine-2-sulfonamide] was run?
A: ≥ 50%

Q: With CCS(=O)(=O)c1ncc(C(=O)N2CCC(c3ccc(F)cc3)CC2)c(Nc2ccccc2C)c1Cl [Compound 204, [5-chloro-6-(ethylsulfonyl)-4-(o-tolylamino)pyridin-3-yl][4-(4-fluorophenyl)piperidin-1-yl]methanone] as the compound, how does the inhibition at up to 1 µM read?
A: ≥ 50%

Q: How did the inhibition at up to 1 µM turn out when Cc1c(S(=O)(=O)Nc2ccon2)ncc(C(=O)N2CCC(c3ccc(F)cc3)CC2)c1Nc1ccc(C#N)cc1 [Compound 298, 4-(4-cyanophenylamino)-5-[4-(4-fluorophenyl)piperidine-1-carbonyl]-N-(isoxazol-3-yl)-3-methylpyridine-2-sulfonamide] was run?
A: ≥ 50%

Q: NS(=O)(=O)c1ncc(C(=O)N2CCC(c3ccc(F)cc3)CC2)c(NC2(c3ccccc3)CC2)c1Cl [Compound 230, 3-chloro-5-[4-(4-fluorophenyl)piperidine-1-carbonyl]-4-(1-phenylcyclopropylamino)pyridine-2-sulfonamide] was tested. Which inhibition at up to 1 µM did it give?
A: ≥ 50%

Q: With Cc1cc(F)ccc1Nc1cc(S(=O)(=O)NC(=O)C2CC2)ncc1C(=O)N1CCC(c2ccc(F)cc2)CC1 [Compound 160, N-{4-(4-fluoro-2-methylphenylamino)-5-[4-(4-fluorophenyl)piperidine-1-carbonyl]pyridin-2-ylsulfonyl}cyclopropanecarboxamide] as the compound, how does the inhibition at up to 1 µM read?
A: ≥ 50%

Q: Cc1c(S(N)(=O)=O)ncc(C(=O)N2CCC3(CC2)COc2ccccc23)c1NCc1ccccc1 [Compound 261, 4-(benzylamino)-3-methyl-5-(2H-spiro[benzofuran-3,4′-piperidine]-1′-ylcarbonyl)pyridine-2-sulfonamide] was tested. Which inhibition at up to 1 µM did it give?
A: ≥ 50%

Q: With Cc1cc(F)ccc1Nc1cc(S(=O)(=O)N2CCOCC2)ncc1C(=O)N1CCC(c2ccc(F)cc2)CC1 [Compound 122, [4-(4-fluoro-2-methylphenylamino)-6-(morpholinosulfonyl)pyridin-3-yl][4-(4-fluorophenyl)piperidin-1-yl]methanone] as the compound, how does the inhibition at up to 1 µM read?
A: ≥ 50%

Q: How did the inhibition at up to 1 µM turn out when Cc1cc(F)ccc1Nc1cc(S(=O)(=O)Nc2ccccn2)ncc1C(=O)N1CCC(c2ccc(F)cc2)CC1 [Compound 146, 4-(4-fluoro-2-methylphenylamino)-5-[4-(4-fluorophenyl)piperidine-1-carbonyl]-N-(pyridin-2-yl)pyridine-2-sulfonamide] was run?
A: ≥ 50%

Q: Cc1cc(F)ccc1Nc1cc(S(=O)(=O)N2CCOC2=O)ncc1C(=O)N1CCC(c2ccc(F)cc2)CC1 [Compound 143, 3-{4-(4-fluoro-2-methylphenylamino)-5-[4-(4-fluorophenyl)piperidine-1-carbonyl]pyridin-2-ylsulfonyl}oxazolidin-2-one] was tested. Which inhibition at up to 1 µM did it give?
A: ≥ 50%

Q: For Cc1ccc(C(F)(F)F)cc1Nc1c(C(=O)N2CCC(c3ccc(F)cc3)CC2)cnc(S(N)(=O)=O)c1Cl [Compound 311, 3-chloro-5-[4-(4-fluorophenyl)piperidine-1-carbonyl]-4-[2-methyl-5-(trifluoromethyl)phenylamino]pyridine-2-sulfonamide], which inhibition at up to 1 µM is on record?
A: ≥ 50%

Q: Which inhibition at up to 1 µM does the source give for Cc1c(Cl)ccc(Nc2cc(S(N)(=O)=O)ncc2C(=O)N2CCC(c3ccc(F)cc3)CC2)c1F [Compound 77, 4-(4-chloro-2-fluoro-3-methylphenylamino)-5-[4-(4-fluorophenyl)piperidine-1-carbonyl]pyridine-2-sulfonamide] here?
A: ≥ 50%

Q: How did the inhibition at up to 1 µM turn out when CCOC(=O)NS(=O)(=O)c1cc(Nc2cc(C)c(Cl)cc2C)c(C(=O)N2CCC(c3ccc(F)cc3)CC2)cn1 [Compound 19, ethyl 4-(4-chloro-2,5-dimethylphenylamino)-5-[4-(4-fluorophenyl)piperidine-1-carbonyl]pyridin-2-ylsulfonylcarbamate] was run?
A: ≥ 50%

Q: Which inhibition at up to 1 µM does the source give for CCc1c(S(=O)(=O)Nc2ccon2)ncc(C(=O)N2CCC(c3ccc(F)cc3)CC2)c1Nc1cccc(F)c1C [Compound 294, 3-ethyl-4-(3-fluoro-2-methylphenylamino)-5-[4-(4-fluorophenyl)piperidine-1-carbonyl]-N-(isoxazol-3-yl)pyridine-2-sulfonamide] here?
A: ≥ 50%

Q: How did the inhibition at up to 1 µM turn out when Cc1c(S(N)(=O)=O)ncc(C(=O)N2CCC(c3ccc(F)cc3)CC2)c1NCc1cccc(C#N)c1 [Compound 228, 4-(3-cyanobenzylamino)-5-[4-(4-fluorophenyl)piperidine-1-carbonyl]-3-methylpyridine-2-sulfonamide] was run?
A: ≥ 50%

Q: Cc1cc(Cl)ccc1Nc1cc(S(N)(=O)=O)ncc1C(=O)N1CCC(c2ccc(F)cc2)CC1 [Compound 20, 4-(4-chloro-2-methylphenylamino)-5-[4-(4-fluorophenyl)piperidine-1-carbonyl]pyridine-2-sulfonamide] was tested. Which inhibition at up to 1 µM did it give?
A: ≥ 50%

Q: For Cc1c(S(=O)(=O)Nc2ccon2)ncc(C(=O)N2CCC(c3ccc(F)cc3)CC2)c1Nc1ccc(Br)cc1 [Compound 260, 4-(4-bromophenylamino)-5-[4-(4-fluorophenyl)piperidine-1-carbonyl]-N-(isoxazol-3-yl)-3-methylpyridine-2-sulfonamide], which inhibition at up to 1 µM is on record?
A: ≥ 50%

Q: With Cc1cc(F)ccc1Nc1cc(S(=O)(=O)N2CCC(N)CC2)ncc1C(=O)N1CCC(c2ccc(F)cc2)CC1 [Compound 10, [6-(4-aminopiperidin-1-ylsulfonyl)-4-(4-fluoro-2-methylphenylamino)pyridin-3-yl][4-(4-fluorophenyl)piperidin-1-yl]methanone] as the compound, how does the inhibition at up to 1 µM read?
A: ≥ 50%

Q: CCCNC(=O)NS(=O)(=O)c1cc(Nc2cc(C)c(Cl)cc2C)c(C(=O)N2CCC(c3ccc(F)cc3)CC2)cn1 [Compound 167, 4-(4-chloro-2,5-dimethylphenylamino)-5-[4-(4-fluorophenyl)piperidine-1-carbonyl]-N-(propylcarbamoyl)pyridine-2-sulfonamide] was tested. Which inhibition at up to 1 µM did it give?
A: ≥ 50%

Q: For Cc1cc(F)ccc1Nc1cc(S(=O)(=O)Nc2nccn2C)ncc1C(=O)N1CCC(c2ccc(F)cc2)CC1 [Compound 149, 4-(4-fluoro-2-methylphenylamino)-5-[4-(4-fluorophenyl)piperidine-1-carbonyl]-N-(1-methyl-1H-imidazol-2-yl)pyridine-2-sulfonamide], which inhibition at up to 1 µM is on record?
A: ≥ 50%

Q: For COc1ccc(Cl)c(Nc2c(C(=O)N3CCC(c4ccc(F)cc4)CC3)cnc(S(N)(=O)=O)c2Cl)c1 [Compound 324, 3-chloro-4-(2-chloro-5-methoxyphenylamino)-5-[4-(4-fluorophenyl)piperidine-1-carbonyl]pyridine-2-sulfonamide], which inhibition at up to 1 µM is on record?
A: ≥ 50%
